How the values were obtained:
Assay type in all cases: cell-based
[1] = system: SARS-CoV-2 virus, strain S-007; test: Infection of Vero cells with SARS-CoV-2; viral RNA (E-gene) in supernatant by 1-step RT-qPCR; conditions: bazedoxifene 10 μM in DMSO, 2 days of culture
Description: 0.15×10^6/ml Vero cells were infected with SARS-CoV-2 virus, an isolate from the environment, strain designated as S-007, provided by the Těchonin Biological Protection Department. Vero cells were then incubated in Dulbecco's Modified Eagle's Medium (DMEM) with 2% fetal bovine serum (FBS), DMSO 1 μl/ml, or in culture medium with bazedoxifene 10 […] in DMSO dosed from a starting stock solution of 10 mM bazedoxifene in DMSO, corresponding to a bazedoxifene concentration of […]. After 2 days of culture, the virus was quantified in the cell supernatant as follows.
Viral RNA was detected by 1-step RT-qPCR. Total RNA was isolated from 200 μl of supernatant of SARS-CoV-2 infected cells using magnetic beads. SARS-CoV-2 RNA was determined by amplifying the SARS-CoV-2 E-gene (Generi Biotech) using the SensiFast Probe One-Step Kit (BioLine) and Light Cycler 480 II (Roche). Viral RNA was quantified absolutely using a calibration curve.

[2] = system: SARS-CoV-2 virus (strain SARS-CoV-2/human/Czech Republic/951/2020); test: Antiviral testing in Vero-E6 cells, virus titer by plaque titration; conditions: Vero-E6, 3.8 μg/μl, MOI 0.1, 48 h
Description: Confluent culture of Vero-E6 cells (ATCC CRL-1586) was used to test for antiviral activity. Cells were cultured in a 96-well microtiter plate (2×10^4 cells per well) for 24 h at 37° C. and 5% CO2. The culture medium was then aspirated and replaced with fresh medium containing the test substance in a concentration range of 0-3.8 μg/μl. At the same time, the cells were infected with the SARS-CoV-2 virus (strain SARS-CoV-2/human/Czech Republic/951/2020) at a multiplicity of infection of 0.1. The thus treated and infected cells were incubated for 48 h at 37° C. and 5% CO2. The medium was then aspirated from the culture wells and the virus titer was determined by plaque titration (Stefanik et al., Microorganisms 2021, 9 (3), 471; https://doi.org/10.3390/microorganisms9030471).
Results are depicted in FIG. 2.

[3] = system: Vero-E6 cells (ATCC CRL-1586); test: Cytotoxicity in Vero-E6 cell culture (Cell Counting Kit-8); conditions: 48 h incubation, range 0-15.2 μg/μl
Description: The toxicity of the test substance was measured in a culture of Vero-E6 cells (ATCC CRL-1586). Cells were cultured in a 96-well microtiter plate (2×10^4 cells per well) for 24 h at 37° C. and 5% CO2. Then, the test substance was added to the cells in a concentration range of 0-15.2 μg/μ1, and the thus treated cells were subsequently incubated for another 48 h. The viability of the cells was then determined using the Cell Counting Kit-8 kit (Dojindo Molecular Technologies, Munich, Germany), exactly according to the manufacturer's instructions. Results are depicted in FIG. 1. The maximum non-toxic concentration of test substance in Vero-E6 cell culture was 3.8 μg/μl.

## bazedoxifene
[1]; E-gene copies
  % of DMSO: 0.17%
  Fold decrease compared to DMSO: 578.09
[1]; cell supernatant
  E-gene No. of copies of the gene/ml: 5.39 × 10^7 copies of the gene/ml
[2]; versus control group
  decrease of titer in the treated group: approximately 1 log10 pfu/ml
[2]; control group 7.4 log10 pfu/ml
  mean virus titer: 6.3 log10 pfu/ml
[3]
  maximum non-toxic concentration: 3.8 µg/µL

Source: patent US11246874B1, “Treatment of COVID-19” (Oxygen Biotech LLC, priority 2021, dated 2022)
